Data published in patent publication US8771665B2 (Cocrystal Discovery, Inc., priority 2010, dated 2014).

Target: T1, HCV1b NS5B polymerase delta 21 (Hepatitis C virus genotype 1b, UniProt P26663)
T1 construct: purified HCV1b NS5B polymerase delta 21
Assay: RNA-Dependent RNA HCV NS5B (Polymerase) Assay and IC50 Determination
Assay type: biochemical
Details: not given
Protocol: RNA-Dependent RNA HCV NS5B (Polymerase) Assay and IC50 Determination
In vitro RNA-dependent RNA polymerase activity was determined in a reaction mixture (50 μL) containing 50 mM Tris-HCl, pH 7.5, 5 mM MgCl2, 1 mM dithiothreitol, 0.5% Triton® X-100, 10 μM of UTP, 0.1-0.5 μCi of α-^32P UTP (Perkin Elmer Life Sciences), 1 μg of polyA:U16 (Midland Oligo), and 0.6 μg of purified HCV1b NS5B polymerase delta 21. Different concentrations of compounds were added to the reaction mixtures. The reaction was carried out at RT (23° C.) for 60 min and then stopped by the addition of 100 μL of 50 mM EDTA. The reaction mixtures were filtered through either a DE81 membrane or a positively charged nylon membrane, and the membranes were then extensively washed with 30 mM sodium citrate, pH 7.0 and 300 mM NaCl. The radiolabeled RNA products were quantitated using a Storm™ Phosphorlmager™ (GE Life Sciences). IC50 values were calculated using GraFit 6 and GraphPad Prism 5 from triplicate assays.

T1 sequence (P26663 2420-2989): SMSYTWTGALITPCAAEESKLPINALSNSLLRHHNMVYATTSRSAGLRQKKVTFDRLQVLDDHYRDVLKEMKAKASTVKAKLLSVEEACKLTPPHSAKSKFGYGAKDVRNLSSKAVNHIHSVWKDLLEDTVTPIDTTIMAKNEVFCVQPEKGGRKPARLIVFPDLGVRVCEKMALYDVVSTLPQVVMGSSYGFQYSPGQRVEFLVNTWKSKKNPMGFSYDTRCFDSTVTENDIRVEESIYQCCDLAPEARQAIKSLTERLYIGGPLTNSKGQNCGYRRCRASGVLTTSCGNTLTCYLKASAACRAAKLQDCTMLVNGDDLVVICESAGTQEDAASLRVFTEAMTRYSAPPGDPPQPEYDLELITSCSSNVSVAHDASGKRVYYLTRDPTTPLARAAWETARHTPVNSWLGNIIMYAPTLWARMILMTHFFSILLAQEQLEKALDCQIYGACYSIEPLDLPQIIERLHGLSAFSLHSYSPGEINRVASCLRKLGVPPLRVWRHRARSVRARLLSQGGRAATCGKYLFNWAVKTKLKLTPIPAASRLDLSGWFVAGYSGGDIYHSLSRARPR

Compound | IC50 [µM]
CCN1CCC(c2cc(-c3ccc(C(=O)Nc4ccccn4)cc3)sc2C(=O)O)=C(C2CCC(C)CC2)C1 (centres unmarked) [Example 062, 3-[1-Ethyl-5-(4-methyl-cyclohexyl)-1,2,3,6-tetrahydro-pyridin-4-yl]-5-[4-(pyridin-2-ylcarbamoyl)-phenyl]-thiophene-2-carboxylic acid] | < 3
CN1CCC(c2cc(-c3ccccc3)sc2C(=O)O)=C(CCC2CCCC2)C1 [Example 063, 3-[5-(2-Cyclopentyl-ethyl)-1-methyl-1,2,3,6-tetrahydro-pyridin-4-yl]-5-phenyl-thiophene-2-carboxylic acid] | > 10
CN1CCC(c2cc(-c3ccccc3)sc2C(=O)O)=C(C2CCC(C(F)(F)F)CC2)C1 (centres unmarked) [Example 064, 3-[1-Methyl-5-(4-trifluoromethyl-cyclohexyl)-1,2,3,6-tetrahydro-pyridin-4-yl]-5-phenyl-thiophene-2-carboxylic acid] | > 10
CC1CCC(C2=C(c3cc(C#CC(C)(C)C)sc3C(=O)O)CN(CC3CCOCC3)CC2)CC1 (centres unmarked) [Example 065, 5-(3,3-Dimethyl-but-1-ynyl)-3-[4-(4-methyl-cyclohexyl)-1-(tetrahydro-pyran-4-ylmethyl)-1,2,5,6-tetrahydro-pyridin-3-yl]-thiophene-2-carboxylic acid] | < 3
CCN1CCC(c2cc(-c3ccc(NC(=O)c4nccs4)cc3)sc2C(=O)O)=C(C2CCC(C)CC2)C1 (centres unmarked) [Example 066, 3-[1-Ethyl-5-(4-methyl-cyclohexyl)-1,2,3,6-tetrahydro-pyridin-4-yl]-5-{4-[(thiazole-2-carbonyl)-amino]-phenyl}-thiophene-2-carboxylic acid] | < 3
CC1CCC(C2=C(c3cc(-c4ccc(N(C)C(=O)c5cscn5)cc4)sc3C(=O)O)CCN(C)C2)CC1 (centres unmarked) [Example 067, 3-[1-Methyl-5-(4-methyl-cyclohexyl)-1,2,3,6-tetrahydro-pyridin-4-yl]-5-{4-[methyl-(thiazole-4-carbonyl)-amino]-phenyl}-thiophene-2-carboxylic acid] | 3 to 10
CC1CC=C(C2=C(c3cc(C#CC(C)(C)C)sc3C(=O)O)CCN(C)C2)CC1 (centres unmarked) [Example 068, 5-(3,3-Dimethyl-but-1-ynyl)-3-[1-methyl-5-(4-methyl-cyclohex-1-enyl)-1,2,3,6-tetrahydro-pyridin-4-yl]-thiophene-2-carboxylic acid] | < 3
CC1CC=C(C2=C(c3cc(-c4ccc(NC(=O)c5nccs5)cc4)sc3C(=O)O)CCN(C)C2)CC1 (centres unmarked) [Example 069, 3-[1-Methyl-5-(4-methyl-cyclohex-1-enyl)-1,2,3,6-tetrahydro-pyridin-4-yl]-5-{4-[(thiazole-2-carbonyl)-amino]-phenyl}-thiophene-2-carboxylic acid] | < 3
CC1CC=C(C2=C(c3cc(-c4ccc(-c5cc6ncccn6n5)cc4)sc3C(=O)O)CCN(C)C2)CC1 (centres unmarked) [Example 070, 3-[1-Methyl-5-(4-methyl-cyclohex-1-enyl)-1,2,3,6-tetrahydro-pyridin-4-yl]-5-(4-pyrazolo[1,5-a]pyrimidin-2-yl-phenyl)-thiophene-2-carboxylic acid] | < 3
CC(=O)N1CCC(c2cc(-c3ccccc3)sc2C(=O)O)=C(C2CCC(C)CC2)C1 (centres unmarked) [Example 071, 3-[1-Acetyl-5-(4-methyl-cyclohexyl)-1,2,3,6-tetrahydro-pyridin-4-yl]-5-phenyl-thiophene-2-carboxylic acid] | < 3
CC1CCC(C2=C(c3cc(-c4ccccc4)sc3C(=O)O)CCN(C(=O)c3ccccc3)C2)CC1 (centres unmarked) [Example 072, 3-[1-Benzoyl-5-(4-methyl-cyclohexyl)-1,2,3,6-tetrahydro-pyridin-4-yl]-5-phenyl-thiophene-2-carboxylic acid] | > 10
CC1CCC(C2=C(c3cc(-c4ccccc4)sc3C(=O)O)CCN(C(=O)OCc3ccccc3)C2)CC1 (centres unmarked) [Example 073] | > 10
COC(=O)N1CCC(c2cc(-c3ccccc3)sc2C(=O)O)=C(C2CCC(C)CC2)C1 (centres unmarked) [Example 074, 4-(2-Carboxy-5-phenyl-thiophen-3-yl)-5-(4-methyl-cyclohexyl)-3,6-dihydro-2H-pyridine-1-carboxylic acid methyl ester] | 3 to 10
CC1CCC(C2=C(c3cc(-c4ccccc4)sc3C(=O)O)CCN(C(=O)CCc3ccccc3)C2)CC1 (centres unmarked) [Example 076, 3-[5-(4-Methyl-cyclohexyl)-1-(3-phenyl-propanoyl)-1,2,3,6-tetrahydropyridin-4-yl]-5-phenyl-thiophene-2-carboxylic acid] | > 10
CCCC(=O)N1CCC(c2cc(-c3ccccc3)sc2C(=O)O)=C(C2CCC(C)CC2)C1 (centres unmarked) [Example 077, 3-[1-Butyryl-5-(4-methyl-cyclohexyl)-1,2,3,6-tetrahydro-pyridin-4-yl]-5-phenyl-thiophene-2-carboxylic acid] | 3 to 10
CC1CCC(C2=C(c3cc(-c4ccccc4)sc3C(=O)O)CCN(CCc3ccccc3)C2)CC1 (centres unmarked) [Example 078, 3-[5-(4-Methyl-cyclohexyl)-1-phenethyl-1,2,3,6-tetrahydro-pyridin-4-yl]-5-phenyl-thiophene-2-carboxylic acid] | > 10
CC1CCC(C2=C(c3cc(-c4ccccc4)sc3C(=O)O)CCN(CCCCc3ccccc3)C2)CC1 (centres unmarked) [Example 080, 3-[5-(4-Methyl-cyclohexyl)-1-(4-phenyl-butyl)-1,2,3,6-tetrahydro-pyridin-4-yl]-5-phenyl-thiophene-2-carboxylic acid] | > 10
CC1CCC(C2=C(c3cc(-c4ccccc4)sc3C(=O)O)CCN(CC(=O)O)C2)CC1 (centres unmarked) [Example 082, 3-[1-Carboxymethyl-5-(4-methyl-cyclohexyl)-1,2,3,6-tetrahydro-pyridin-4-yl]-5-phenyl-thiophene-2-carboxylic acid] | 3 to 10
CC1CCC(C2=C(c3cc(-c4ccccc4)sc3C(=O)O)CCN(CCC(=O)O)C2)CC1 (centres unmarked) [Example 083, 3-[1-(2-Carboxy-ethyl)-5-(4-methyl-cyclohexyl)-1,2,3,6-tetrahydro-pyridin-4-yl]-5-phenyl-thiophene-2-carboxylic acid] | 3 to 10
CC1CCC(C2=C(c3cc(-c4ccccc4)sc3C(=O)O)CCN(C(N)=O)C2)CC1 (centres unmarked) [Example 084, 3-[1-Carbamoyl-5-(4-methyl-cyclohexyl)-1,2,3,6-tetrahydro-pyridin-4-yl]-5-phenyl-thiophene-2-carboxylic acid] | < 3
CCNC(=O)N1CCC(c2cc(-c3ccccc3)sc2C(=O)O)=C(C2CCC(C)CC2)C1 (centres unmarked) [Example 085, 3-[1-Ethylcarbamoyl-5-(4-methyl-cyclohexyl)-1,2,3,6-tetrahydro-pyridin-4-yl]-5-phenyl-thiophene-2-carboxylic acid] | 3 to 10
CC1CCC(C2=C(c3cc(-c4ccccc4)sc3C(=O)O)CCN(Cc3ccc(Cl)cc3)C2)CC1 (centres unmarked) [Example 086, 3-[1-(4-Chloro-benzyl)-5-(4-methyl-cyclohexyl)-1,2,3,6-tetrahydro-pyridin-4-yl]-5-phenyl-thiophene-2-carboxylic acid] | 3 to 10
CC1CCC(C2=C(c3cc(-c4ccccc4)sc3C(=O)O)CCN(Cc3ccccn3)C2)CC1 (centres unmarked) [Example 087, 3-[5-(4-Methyl-cyclohexyl)-1-pyridin-2-ylmethyl-1,2,3,6-tetrahydro-pyridin-4-yl]-5-phenyl-thiophene-2-carboxylic acid] | < 3
Cc1cc(C)n2nc(CN3CCC(c4cc(-c5ccccc5)sc4C(=O)O)=C(C4CCC(C)CC4)C3)nc2n1 (centres unmarked) [Example 088, 3-[1-(5,7-Dimethyl-[1,2,4]triazolo[1,5-a]pyrimidin-2-ylmethyl)-5-(4-methyl-cyclohexyl)-1,2,3,6-tetrahydro-pyridin-4-yl]-5-phenyl-thiophene-2-carboxylic acid] | < 3
CC1CCC(C2=C(c3cc(-c4ccccc4)sc3C(=O)O)CCN(Cc3cccnc3)C2)CC1 (centres unmarked) [Example 089, 3-[5-(4-Methyl-cyclohexyl)-1-pyridin-3-ylmethyl-1,2,3,6-tetrahydro-pyridin-4-yl]-5-phenyl-thiophene-2-carboxylic acid] | < 3
CC1CCC(C2=C(c3cc(-c4ccccc4)sc3C(=O)O)CCN(Cc3ccncc3)C2)CC1 (centres unmarked) [Example 090, 3-[5-(4-Methyl-cyclohexyl)-1-pyridin-4-ylmethyl-1,2,3,6-tetrahydro-pyridin-4-yl]-5-phenyl-thiophene-2-carboxylic acid] | < 3
Cc1cc(C)n2nc(CCCN3CCC(c4cc(-c5ccccc5)sc4C(=O)O)=C(C4CCC(C)CC4)C3)nc2n1 (centres unmarked) [Example 091, 3-[1-[3-(5,7-Dimethyl-[1,2,4]triazolo[1,5-a]pyrimidin-2-yl)-propyl]-5-(4-methyl-cyclohexyl)-1,2,3,6-tetrahydro-pyridin-4-yl]-5-phenyl-thiophene-2-carboxylic acid] | < 3
CC1CCC(C2=C(c3cc(-c4ccccc4)sc3C(=O)O)CCN(Cc3nc4ncccn4n3)C2)CC1 (centres unmarked) [Example 092, 3-[5-(4-Methyl-cyclohexyl)-1-[1,2,4]triazolo[1,5-a]pyrimidin-2-ylmethyl-1,2,3,6-tetrahydro-pyridin-4-yl]-5-phenyl-thiophene-2-carboxylic acid] | 3 to 10

Same assay, conditions: purified HCV1b NS5B polymerase delta 21, polyA:U16, RT 60 min, triplicate assays

Compound | IC50 [µM]
CC1CCC(C2=C(c3cc(-c4ccccc4)sc3C(=O)O)CCN(Cc3ccccc3)C2)CC1 (centres unmarked) [Example 079, 3-[1-Benzyl-5-(4-methyl-cyclohexyl)-1,2,3,6-tetrahydro-pyridin-4-yl]-5-phenyl-thiophene-2-carboxylic acid] | 3 to 10
